Patent US8106004B2, “Methods of inhibiting tumor cell aggressiveness using the microenvironment of human embryonic stem cells” (Children's Memorial Hospital, priority 2006, dated 2012)

Test system: MDA-MB-231 breast carcinoma cells
Assay: In vivo tumor formation, orthotopic mouse model, MDA-MB-231 breast carcinoma cells
Settings: 500,000 MDA-MB-231 cells treated with Morpholino before injection
Source text: (A) In vivo tumor formation in a mouse injected with MDA-MB-231 cells pre-exposed for 3 days to either a control matrix (Matrigel) or a matrix conditioned by hESCs (H9 CMTX) (n=10) (B) C81-61 cells, transfected with either an empty vector or a Nodal expression construct (n=5), and (C) MDA-MB-231 cells treated with either MO^Control or MO^Nodal (n=10). […] (D) The ratio of tumor cell proliferation to apoptosis for C8161 and MDA-MB-231 derived tumors, determined by immunohistochemical staining for Ki67 and terminal deoxynucleotidyl transferase biotin-dUTP nick-end labeling (TUNEL). Prior to injection into a mouse, C8161 and MDA-MB-231 cells were cultured for 3 days on control or hESC conditioned (H9 CMTX) matrices, or treated with MO^Nodal to knock down Nodal expression. […] Proliferation is indicated by Ki67 staining and apoptotic nuclei were detected with confocal microscopy as red staining localized to the nuclei of apoptotic C8161 or MDA-MB-231 cells. […]
The effects of the hESC microenvironment on the in vivo tumorigenicity of melanoma and breast carcinoma cells were examined using orthotopic mouse models. […] The […] C81-61 melanoma cell line was unable to form palpable tumors when 500,000 cells were injected, and using gross observation and histology 5.5 weeks after inoculation, these tumor cells could not be detected at the site of injection. […]

For “MO^Nodal: FITC-conjugated anti-sense Morpholino to Nodal, 5′-AAGCAGCACCTCCAGCCCTTATATC-3′ [SEQ ID NO: 20] (all phosphorodiamidate morpholino (PMO); FITC conjugated, position not given here)”, the tumorigenicity was “significant reduction”.
